Among the test systems are SR; SF-295; NCI-H23; HCT-15; HCC 2998; A549; U-251; TK-10; ACHN; CAKI-1; NCI-H522; OVCAR-4; UACC-62; EKVX; NCI-H226; OVCAR-8; MOLT-4.
Holding throughout (test): inhibition of tumour cell growth, NCI panel, 48 h

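Where inhibition never reached the appropriate level, the endpoint shown equals the highest concentration tested. Otherwise, values were interpolated linearly from a five-concentration, 48-hour dose response in 96-well plates. GI50 = concentration required for 50% inhibition of growth.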 Active and inactive are the calls of the source. No stated cut-off is given here; in the data, active = GI50 up to about 1.1 µM and inactive = higher. Non-standard residues stand in square brackets, D forms with d. Residues, ends and D or L forms follow the SMILES beside them. ξ: configuration not given here. *: point of attachment. NMeF = CN[C@@H](Cc1ccccc1)C(=O)O; ξNMeV = CNC(C(=O)O)C(C)C; Boc = CC(C)(C)OC(=O)*; OBn = c1ccc(CO*)cc1

With `Sc1nnc(-c2cccnc2)[nH]1`, the GI50 with SR is > 100 µM (inactive); with SF-295, > 100 µM (inactive); in the test with NCI-H23, > 100 µM (inactive); with HCT-15 it was over 100 µM; in the test on HCC 2998, > 100 µM (inactive); with A549 it was > 100 µM (inactive). Besides, the GI50 in the test with U-251, with TK-10 and in the test on ACHN was > 100 µM (inactive) each time.
Turning to `Cc1ccc(N2C(=O)/C(=C3\Sc4c(nc(C)[nH]c4=O)N3c3ccccc3)SC2=S)cc1`, the GI50 is > 100 µM (inactive) in the test with CAKI-1; 48.4 µM (inactive) in the test with NCI-H522; 29.2 µM (inactive) in the test on OVCAR-4; 18 µM (inactive) in the test on SF-295; 19.8 µM (inactive) in the test on NCI-H23; 16.4 µM in the test on HCT-15. Besides, the GI50 in the test on UACC-62 was > 100 µM (inactive); in the test with EKVX, 91.8 µM (inactive); with A549, 43 µM (inactive); with NCI-H226, 30.5 µM (inactive); in the test with U-251, 17.3 µM (inactive); with TK-10 it was 24 µM (inactive). The values for the GI50 with ACHN and in the test with OVCAR-8 were 28.8 µM (inactive) and 34.6 µM (inactive), respectively.
For the compound `COC(=O)C1=CC2CC1C(S(=O)(=O)c1ccccc1)C2S(=O)(=O)c1ccccc1` (stereo not given), the GI50 was 7.83 µM (inactive) with CAKI-1; 2.56 µM (inactive) with SR; 17.5 µM (inactive) in the test on OVCAR-4; 21.3 µM (inactive) in the test with SF-295; 18.1 µM (inactive) with NCI-H23; 12.5 µM in the test with HCT-15. Further, the GI50 was 22.1 µM (inactive) in the test with UACC-62; 19.7 µM (inactive) in the test with HCC 2998; 24.8 µM (inactive) in the test on A549; 17.6 µM (inactive) with NCI-H226; 17.3 µM (inactive) in the test on U-251; 10.4 µM (inactive) in the test on TK-10. Further, the results for the GI50 with ACHN, with MOLT-4 and in the test on OVCAR-8 were 7.48 µM (inactive), 4.42 µM (inactive) and 13 µM (inactive), respectively.
As for `CCOC(=O)/C(=C/c1cccc(OC)c1)N(CC)CC`, the GI50 with CAKI-1, in the test on SR, in the test with NCI-H522, with OVCAR-4, in the test with SF-295 and in the test with NCI-H23 was > 100 µM (inactive) throughout. The GI50 in the test on HCT-15 was over 100 µM; in the test with UACC-62, > 100 µM (inactive); in the test with EKVX, > 100 µM (inactive); in the test on A549, > 100 µM (inactive); with NCI-H226, > 100 µM (inactive); in the test with U-251 it was > 100 µM (inactive). Also, the GI50 in the test on TK-10, in the test with ACHN, in the test on MOLT-4 and in the test on OVCAR-8 was > 100 µM (inactive) in each case.
Take `NC(=O)CCC(Nc1c2ccccc2nc2ccccc12)C(=O)O` (stereo not given): the GI50 in the test on CAKI-1 is > 100 µM (inactive); with SR, 55.2 µM (inactive); in the test on NCI-H522, > 100 µM (inactive); in the test with OVCAR-4, 4.14 µM (inactive); with SF-295, > 100 µM (inactive); with NCI-H23, > 100 µM (inactive). For the same compound, the GI50 was over 100 µM with HCT-15; 71.3 µM (inactive) in the test with EKVX; > 100 µM (inactive) in the test with HCC 2998; > 100 µM (inactive) in the test on A549; > 100 µM (inactive) in the test with NCI-H226; > 100 µM (inactive) with U-251. For the same compound, the GI50 in the test with TK-10 was > 100 µM (inactive); in the test on ACHN, 91 µM (inactive); with MOLT-4 it was 58.1 µM (inactive); with OVCAR-8, > 100 µM (inactive).
Consider `COc1cccc2c(SCC(=O)Nc3ccccc3-c3ccccc3NC(=O)CSc3c4ccccc4nc4c(OC)cccc34)c3ccccc3nc12`, for which the GI50 was 76.9 µM (inactive) in the test on SR; > 100 µM (inactive) in the test on OVCAR-4; > 100 µM (inactive) in the test on SF-295; > 100 µM (inactive) in the test on NCI-H23; over 100 µM in the test with HCT-15; 38.6 µM (inactive) with UACC-62. For the same compound, the GI50 with EKVX was 21.7 µM (inactive); with HCC 2998, > 100 µM (inactive); in the test on A549, > 100 µM (inactive); in the test on NCI-H226, > 100 µM (inactive); in the test on U-251, > 100 µM (inactive); with TK-10, > 100 µM (inactive). Also, the GI50 with ACHN, in the test with MOLT-4 and with OVCAR-8 was > 100 µM (inactive) each time.
Take `CCOC(=O)c1cnc2[nH]c(=O)c3ccccc3n2c1=O`: the GI50 with CAKI-1, in the test on SR, in the test on NCI-H522, in the test on OVCAR-4, with SF-295 and with NCI-H23 was > 100 µM (inactive) throughout. For the same compound, the GI50 in the test with HCT-15 is over 100 µM; in the test on UACC-62, > 100 µM (inactive); with EKVX, > 100 µM (inactive); with A549, > 100 µM (inactive); with NCI-H226 it was > 100 µM (inactive); in the test with U-251 it was > 100 µM (inactive). Moreover, the GI50 in the test with TK-10, with ACHN, in the test with MOLT-4 and in the test with OVCAR-8 was > 100 µM (inactive) throughout.
On to `NC1=NS(=O)(=O)Nc2nc(-c3ccc(Cl)cc3)c(-c3ccc(Cl)cc3)nc21`, for which the GI50 in the test with CAKI-1 is > 100 µM (inactive); with SR, > 100 µM (inactive); in the test with NCI-H522, 48 µM (inactive); with OVCAR-4 it was > 100 µM (inactive); in the test on SF-295 it was > 100 µM (inactive); with NCI-H23, > 100 µM (inactive). Besides, the GI50 is > 100 µM (inactive) with UACC-62; > 100 µM (inactive) in the test on HCC 2998; > 100 µM (inactive) in the test with A549; 65.8 µM (inactive) in the test with U-251; > 100 µM (inactive) in the test with TK-10; > 100 µM (inactive) in the test on ACHN. For the same compound, the GI50 in the test with MOLT-4 and in the test with OVCAR-8 was > 100 µM (inactive) in each case.
Turning to `Nc1ccc(C(=O)O)c2[nH]c3ccccc3c(=O)c12`, the GI50 was > 100 µM (inactive) in the test with CAKI-1; > 100 µM (inactive) with SR; > 100 µM (inactive) in the test with NCI-H522; > 100 µM (inactive) in the test on OVCAR-4; > 100 µM (inactive) in the test with SF-295; over 100 µM with HCT-15. Moreover, the GI50 in the test with UACC-62, with HCC 2998, with A549, with U-251, with TK-10 and in the test on ACHN was > 100 µM (inactive) each time. Besides, the GI50 with MOLT-4 and with OVCAR-8 was > 100 µM (inactive) each time.
In the case of `CC1=C(C(=O)Nc2c(C)cccc2C)C(c2ccc3c(c2)OCO3)C(C(=O)Nc2c(C)cccc2C)=C(C)N1`, the GI50 is 25.1 µM (inactive) in the test on CAKI-1; 22.5 µM (inactive) with SR; 14.9 µM (inactive) in the test on NCI-H522; 30.3 µM (inactive) with OVCAR-4; 16.5 µM (inactive) in the test on SF-295; 16.1 µM (inactive) with NCI-H23. The GI50 with UACC-62 is 2.7 µM (inactive); in the test on EKVX it was 21.5 µM (inactive); with HCC 2998, 18.1 µM (inactive); in the test with A549, 19.7 µM (inactive); in the test with NCI-H226, 17.5 µM (inactive); in the test on U-251, 15.5 µM (inactive). For the same compound, the GI50 in the test with TK-10 was 24.7 µM (inactive); with ACHN it was 17.5 µM (inactive); in the test on MOLT-4, 15 µM (inactive); in the test on OVCAR-8 it was 18.1 µM (inactive).
Regarding `CCCCCC(CN1CCOCC1)C(=O)/C=C/c1ccccc1` (stereo not given), the GI50 in the test with SR was 1.95 µM (inactive); in the test on OVCAR-4, 2.95 µM (inactive); with SF-295 it was 3.46 µM (inactive); in the test on NCI-H23 it was 3.36 µM (inactive); in the test on HCT-15, 2.03 µM; in the test on UACC-62, 1.46 µM (inactive). Also, the GI50 is 10.4 µM (inactive) with EKVX; 2 µM (inactive) with HCC 2998; 3.3 µM (inactive) in the test with A549; 3.36 µM (inactive) in the test on NCI-H226; 2.77 µM (inactive) with U-251; 1.71 µM (inactive) in the test on MOLT-4.
`CCN(CC)CCCCC1CCN(CC(=O)N2c3ccccc3NC(=O)c3ccccc32)CC1`: the GI50 is > 100 µM (inactive) in the test with CAKI-1; > 100 µM (inactive) in the test with SR; > 100 µM (inactive) in the test with NCI-H522; > 100 µM (inactive) in the test on OVCAR-4; > 100 µM (inactive) in the test on SF-295; 55.6 µM (inactive) in the test on NCI-H23. Moreover, the GI50 in the test on UACC-62, with EKVX, with HCC 2998, with A549, with NCI-H226 and in the test on TK-10 was > 100 µM (inactive) throughout. Moreover, the GI50 in the test on MOLT-4 and in the test with OVCAR-8 was > 100 µM (inactive) each time.
With `[N-]=[N+]=NC1C(Cl)C(=O)NC(=O)N1[C@H]1C[C@H](O)[C@@H](CO)O1` (stereo not given in full), the GI50 in the test with CAKI-1, with OVCAR-4, in the test with SF-295, in the test on NCI-H23, with UACC-62 and in the test with EKVX was > 100 µM (inactive) in each case. The GI50 with HCC 2998, with A549, in the test on U-251, in the test on TK-10, with ACHN and in the test with MOLT-4 was > 100 µM (inactive) each time. Also, in the test on OVCAR-8, the GI50 is > 100 µM (inactive).
In the case of `CC(C)C(C(=O)N1CCC[C@@H]1C(=O)OCc1ccccc1)N(C)C(=O)C(C(C)C)N(C)C(=O)[C@H](Cc1ccccc1)N(C)C(=O)[C@H](NC(=O)OC(C)(C)C)C(C)C` (stereo not given in full) (Boc-[dV][NMeF][ξNMeV][ξNMeV][dP]-OBn), the GI50 in the test on SR was > 29.8 µM (inactive); in the test on NCI-H522 it was > 100 µM (inactive); with OVCAR-4, > 54.2 µM (inactive); with SF-295, 9.04 µM (inactive); in the test with NCI-H23, > 81.3 µM (inactive); in the test with HCT-15, over 30.9 µM. Also, the GI50 is > 100 µM (inactive) in the test with UACC-62; > 65.8 µM (inactive) in the test with EKVX; > 100 µM (inactive) in the test with HCC 2998; 6.55 µM (inactive) in the test on A549; > 100 µM (inactive) with NCI-H226; > 100 µM (inactive) in the test on U-251. For the same compound, the GI50 in the test on TK-10 is > 100 µM (inactive); in the test on ACHN it was 16.7 µM (inactive); in the test with MOLT-4, 7.94 µM (inactive); in the test with OVCAR-8 it was > 100 µM (inactive).

The record behind these values is ChEMBL document CHEMBL1201862, “PubChem BioAssay data set” (2004).
